According to patent US8012979B2, “Compounds and their uses 707” (AstraZeneca AB, priority 2007, dated 2011):
Counter-ions that a name gives are not always drawn.

Molecular target: T1, human active recombinant p38α-6His tagged (Homo sapiens, UniProt Q16539)
T1 construct: 6His
Experiment: p38 Alpha Enzyme Assay (AlphaScreen, biotinylated-ATF2 substrate)
Assay type: biochemical
Conditions: pre-incubated 4 hours at 37° C., reaction initiated with ATP; 0.5 nM enzyme; read-out: p38 pIC50 (converted)
Experimental: The ability of the compounds of formula (I) to inhibit p38 kinase may be determined using the following biological assay:
Enzyme assays were performed in polypropylene 96 well plates. The following solutions were added to each well; 10 μL of compound dilutions in assay buffer (20 mM HEPES pH 7.4, containing 20 mM magnesium acetate, 0.005% (w/v) Tween-20, 10 mM DTT) containing 1% (v/v) DMSO or assay buffer containing 1% (v/v) DMSO alone, 70 μL of assay buffer containing 36 nM substrate (biotinylated-ATF2) and 10 μL of an appropriate dilution of human active recombinant p38α-6His tagged. Depending on batch of p38, an appropriate dilution was typically a 5 nM solution to give a final enzyme concentration of 0.5 nM. At this stage, background control wells also received 50 μL of AlphaScreen quench buffer (10 mM HEPES pH 7.4 containing 100 mM EDTA, 0.2% (w/v) bovine serum albumin). The plate was covered, pre-incubated for 4 hours at 37° C. and the enzyme reaction initiated by addition of 10 μL 1 mM ATP. After incubation for a further 45 minutes at 37° C., the reaction was stopped by addition of 50 μL quench reagent and 50 μL of the quenched reaction mixture transferred to an opaque, white 96-well plate. Detection reagent, 25 μL of 10 mM HEPES pH 7.4 containing 100 mM EDTA, 0.2% (w/v) bovine serum albumin, 0.3 nM anti phosphoATF2 antibody and 25 μg/mL of ‘AlphaScreen protein A acceptor and donor beads’ (PerkinElmer Inc.), was added to all wells in a darkened room, the plate sealed and left in the dark for at least 5 hours before AlphaScreen readings were taken using a Perkin Elmer EnVision reader. Total, uninhibited activity was determined from assays performed in each assay plate. The mean control in the absence of p38 activity was subtracted from each well. Data were expressed as percent inhibition of total activity using equation 1. Percent Inhibition=100*(1−Test/Control) Eq.1 Where . . . . • Test=p38 kinase activity in the presence of compound • Control=p38 kinase activity in the absence of compound.
pIC50 is defined as the logarithm of the reciprocal of the concentration of compound required for 50% reduction in total p38 kinase activity.

T1 sequence (Q16539 whole entry): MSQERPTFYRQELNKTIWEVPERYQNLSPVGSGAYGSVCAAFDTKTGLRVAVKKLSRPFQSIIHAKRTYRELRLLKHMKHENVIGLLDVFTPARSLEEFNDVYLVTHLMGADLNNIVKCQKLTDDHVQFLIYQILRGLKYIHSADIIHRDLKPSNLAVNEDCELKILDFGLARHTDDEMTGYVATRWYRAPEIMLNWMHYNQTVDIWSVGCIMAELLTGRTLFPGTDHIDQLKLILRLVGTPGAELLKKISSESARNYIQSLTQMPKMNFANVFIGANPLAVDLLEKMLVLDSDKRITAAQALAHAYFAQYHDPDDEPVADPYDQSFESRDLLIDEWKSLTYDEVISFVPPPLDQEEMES

Q: `Cc1ccc(C(=O)NC2CC2)cc1-c1ccc2c(=O)n(Cc3ccccc3)ccc2c1` [Example 1, 3-(2-Benzyl-1-oxo-1,2-dihydro-isoquinolin-6-yl)-N-cyclopropyl-4-methyl-benzamide] was tested. Which IC50 did it give?
A: 0.794 nM

Q: Which IC50 does the source give for `CCNC(=O)c1ccc(C)c(-c2ccc3c(=O)n(Cc4ccccc4)ccc3c2)c1` [Example 2, 3-(2-Benzyl-1-oxo-1,2-dihydro-isoquinolin-6-yl)-N-ethyl-4-methyl-benzamide] here?
A: 7.94 nM

Q: How did the IC50 turn out when `Cc1ccc(C(=O)NC2CC2)cc1-c1ccc2c(=O)n(Cc3ccc(Br)cc3)ccc2c1` [Example 3, 3-[2-(4-Bromo-benzyl)-1-oxo-1,2-dihydro-isoquinolin-6-yl]-N-cyclopropyl-4-methyl-benzamide] was run?
A: 2.51 nM

Q: For `Cc1ccc(C(=O)NC2CC2)cc1-c1ccc2c(=O)n(Cc3ccc(N4CCN(C)CC4)cc3)ccc2c1` [Example 4, N-Cyclopropyl-4-methyl-3{2-[4-(4-methyl-piperazin-1-yl)-benzyl]-1-oxo-1,2-dihydro-isoquinolin-6-yl}-benzamide], which IC50 is on record?
A: 1.26 nM

Q: For `Cc1ccc(C(=O)NC2CC2)cc1-c1ccc2c(=O)n(Cc3ccc(S(C)(=O)=O)cc3)ccc2c1` [Example 5, N-Cyclopropyl-3-[2-(4-methanesulfonyl-benzyl)-1-oxo-1,2-dihydro-isoquinolin-6-yl]-4-methyl-benzamide], which IC50 is on record?
A: 3.16 nM

Q: For `Cc1ccc(C(=O)NC2CC2)cc1-c1ccc2c(=O)n(Cc3ccc(C4=CCN(C(=O)OC(C)(C)C)CC4)cc3)ccc2c1` [Example 6, 4-{4-[6-(5-Cyclopropylcarbamoyl-2-methyl-phenyl)-1-oxo-1H-isoquinolin-2-ylmethyl]-phenyl}-3,6-dihydro-2H-pyridine-1-carboxylic acid, tert-butyl ester], which IC50 is on record?
A: 6.31 nM

Q: With `Cc1ccc(C(=O)NC2CC2)cc1-c1ccc2c(=O)n(Cc3ccc(C4=CCNCC4)cc3)ccc2c1` [Example 7, N-Cyclopropyl-4-methyl-3-[1-oxo-2-{4-(1,2,3,6-tetrahydro-pyridin-4-yl)-benzyl}-1,2-dihydro-isoquinolin-6-yl]-benzamide, hydrochloride] as the molecule, how does the IC50 read?
A: 0.398 nM

Q: With `Cc1ccc(C(=O)NC2CC2)cc1-c1ccc2c(=O)n(Cc3ccc(C4CCNCC4)cc3)ccc2c1` [Example 8, N-Cyclopropyl-4-methyl-3-[1-oxo-2-(4-piperidin-4-yl-benzyl)-1,2-dihydro-isoquinolin-6-yl]-benzamide] as the molecule, how does the IC50 read?
A: 0.501 nM

Q: For `CONC(=O)c1ccc(C)c(-c2ccc3c(=O)n(Cc4ccc(C5=CCNCC5)cc4)ccc3c2)c1` [Example 9, N-Methoxy-4-methyl-3-[1-oxo-2-[4-(1,2,3,6-tetrahydro-pyridin-4-yl)-benzyl]-1,2-dihydro-isoquinolin-6-yl]-benzamide], which IC50 is on record?
A: 0.2 nM

Q: For `Cc1ccc(C(=O)NC2CC2)cc1-c1ccc2c(=O)n(Cc3cccc(OCCCN(C)C)c3)ccc2c1` [Example 10, N-Cyclopropyl-3-{2-[3-(3-dimethylamino-propoxy)-benzyl]-1-oxo-1,2-dihydro-isoquinolin-6-yl}-4-methyl-benzamide], which IC50 is on record?
A: 2 nM

Q: Which IC50 does the source give for `Cc1ccc(C(=O)NC2CC2)cc1-c1ccc2c(=O)[nH]ccc2c1` [Example 11, N-Cyclopropyl-4-methyl-3-(1-oxo-1,2-dihydro-isoquinolin-6-yl)-benzamide] here?
A: 25.1 nM

Q: For `C=CCn1ccc2cc(-c3cc(C(=O)NC4CC4)ccc3C)ccc2c1=O` [Example 12, 3-(2-Allyl-1-oxo-1,2-dihydro-isoquinolin-6-yl)-N-cyclopropyl-4-methyl-benzamide], which IC50 is on record?
A: 7.94 nM

Q: For `Cc1ccc(C(=O)NC2CC2)cc1-c1ccc2c(=O)n(CCCN3CCCC3)ccc2c1` [Example 13, N-Cyclopropyl-4-methyl-3-[1-oxo-2-(3-pyrrolidin-1-yl-propyl)-1,2-dihydro-isoquinolin-6-yl]-benzamide], which IC50 is on record?
A: 316 nM

Q: `Cc1ccc(C(=O)NC2CC2)cc1-c1ccc2c(=O)n(Cc3ccc(CN(C)C)cc3)ccc2c1` [Example 14, N-Cyclopropyl-3-[2-(4-dimethylaminomethyl-benzyl)-1-oxo-1,2-dihydro-isoquinolin-6-yl]-4-methyl-benzamide] was tested. Which IC50 did it give?
A: 2.51 nM

Q: Which IC50 does the source give for `Cc1ccc(C(=O)NC2CC2)cc1-c1ccc2c(=O)n(Cc3cccc(CN(C)C)c3)ccc2c1` [Example 15, N-Cyclopropyl-3-[2-(3-dimethylaminomethyl-benzyl)-1-oxo-1,2-dihydro-isoquinolin-6-yl]-4-methyl-benzamide] here?
A: 3.16 nM

Q: How did the IC50 turn out when `Cc1ccc(C(=O)NC2CC2)cc1-c1ccc2c(=O)n(Cc3ccccc3CN(C)C)ccc2c1` [Example 16, N-Cyclopropyl-3-[2-(2-dimethylaminomethyl-benzyl)-1-oxo-1,2-dihydro-isoquinolin-6-yl]-4-methyl-benzamide] was run?
A: 50.1 nM

Q: Which IC50 does the source give for `COc1ccc(Cn2ccc3cc(-c4cc(C(=O)NC5CC5)ccc4C)ccc3c2=O)cc1` [Example 17, N-Cyclopropyl-3-[2-(4-methoxy-benzyl)-1-oxo-1,2-dihydro-isoquinolin-6-yl]-4-methyl-benzamide] here?
A: 1 nM

Q: Which IC50 does the source give for `Cc1ccc(C(=O)NC2CC2)cc1-c1ccc2c(=O)n(Cc3ccc(C(=O)N(C)CCN(C)C)cc3)ccc2c1` [Example 18, N-Cyclopropyl-3-(2-(4-((2-(dimethylamino)ethyl)(methyl)carbamoyl)benzyl)-1-oxo-1,2-dihydroisoquinolin-6-yl)-4-methylbenzamide] here?
A: 2 nM

Q: With `Cc1ccc(C(=O)NC2CC2)cc1-c1ccc2c(=O)n(Cc3ccc(C(=O)NCCN(C)C)cc3)ccc2c1` [Example 19, N-Cyclopropyl-3-(2-(4-(2-(dimethylamino)ethylcarbamoyl)benzyl)-1-oxo-1,2-dihydroisoquinolin-6-yl)-4-methylbenzamide] as the molecule, how does the IC50 read?
A: 1 nM

Q: Which IC50 does the source give for `Cc1ccc(C(=O)NC2CC2)cc1-c1ccc2c(=O)n(Cc3ccc(C(=O)N4CCN(C)CC4)cc3)ccc2c1` [Example 20, N-Cyclopropyl-4-methyl-3-(2-(4-(4-methylpiperazine-1-carbonyl)benzyl)-1-oxo-1,2-dihydroisoquinolin-6-yl)benzamide] here?
A: 1.26 nM

Q: For `Cc1ccc(C(=O)NC2CC2)cc1-c1ccc2c(=O)n(Cc3ccc(C(=O)N(C)CCCN(C)C)cc3)ccc2c1` [Example 21, N-Cyclopropyl-3-(2-(4-((3-(dimethylamino)propyl)(methyl)carbamoyl)benzyl)-1-oxo-1,2-dihydroisoquinolin-6-yl)-4-methylbenzamide], which IC50 is on record?
A: 3.16 nM

Q: With `Cc1ccc(C(=O)NC2CC2)cc1-c1ccc2c(=O)n(Cc3ccc(C(=O)NCCN4CCCC4)cc3)ccc2c1` [Example 22, N-Cyclopropyl-4-methyl-3-(1-oxo-2-(4-(2-(pyrrolidin-1-yl)ethylcarbamoyl)benzyl)-1,2-dihydroisoquinolin-6-yl)benzamide] as the molecule, how does the IC50 read?
A: 0.794 nM

Q: How did the IC50 turn out when `CNCCN(C)C(=O)c1ccc(Cn2ccc3cc(-c4cc(C(=O)NC5CC5)ccc4C)ccc3c2=O)cc1` [Example 23, N-Cyclopropyl-4-methyl-3-(2-(4-(methyl(2-(methylamino)ethyl)carbamoyl)benzyl)-1-oxo-1,2-dihydroisoquinolin-6-yl)benzamide] was run?
A: 2 nM

Q: `Cc1ccc(C(=O)NC2CC2)cc1-c1ccc2c(=O)n(Cc3ccc(C(=O)NCCCN4CCCC4)cc3)ccc2c1` [Example 24, N-Cyclopropyl-4-methyl-3-(1-oxo-2-(4-(3-(pyrrolidin-1-yl)propylcarbamoyl)benzyl)-1,2-dihydroisoquinolin-6-yl)benzamide] was tested. Which IC50 did it give?
A: 0.631 nM

Q: `Cc1ccc(C(=O)NC2CC2)cc1-c1ccc2c(=O)n(Cc3ccc(CN4CCCC4)cc3)ccc2c1` [Example 25, N-Cyclopropyl-4-methyl-3-(1-oxo-2-(4-(pyrrolidin-1-ylmethyl)benzyl)-1,2-dihydroisoquinolin-6-yl)benzamide] was tested. Which IC50 did it give?
A: 3.16 nM

Q: Which IC50 does the source give for `Cc1ccc(C(=O)NC2CC2)cc1-c1ccc2c(=O)n(Cc3ccc(CN4CCN(C)CC4)cc3)ccc2c1` [Example 26, N-Cyclopropyl-4-methyl-3-(2-(4-((4-methylpiperazin-1-yl)methyl)benzyl)-1-oxo-1,2-dihydroisoquinolin-6-yl)benzamide] here?
A: 3.16 nM

Q: For `Cc1ccc(C(=O)NC2CC2)cc1-c1ccc2c(=O)n(Cc3ccc(CN(C)C(C)(C)C)cc3)ccc2c1` [Example 27, 3-(2-(4-((Tert-butyl(methyl)amino)methyl)benzyl)-1-oxo-1,2-dihydroisoquinolin-6-yl)-N-cyclopropyl-4-methylbenzamide], which IC50 is on record?
A: 1 nM

Q: Which IC50 does the source give for `Cc1ccc(C(=O)NC2CC2)cc1-c1ccc2c(=O)n(Cc3ccc(CNC(C)(C)C)cc3)ccc2c1` [Example 28, 3-(2-(4-((Tert-butylamino)methyl)benzyl)-1-oxo-1,2-dihydroisoquinolin-6-yl)-N-cyclopropyl-4-methylbenzamide] here?
A: 1 nM
